Results from ChEMBL document CHEMBL1201862, “PubChem BioAssay data set” (2004).
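Assay format: 96-well plates, 48-hour exposure. The concentration for 50% growth inhibition is given as GI50.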 Active and inactive are the calls of the source. Cut-off read from the data, not from the text of the source: active = GI50 up to about 1.1 µM and inactive = higher.

What was measured:
Assay in all cases: NCI-60 cell line screen, 48 h
SF-539 = tested on: SF-539
M14 = tested on: M14
SR = tested on: SR
OVCAR-3 = tested on: OVCAR-3
UACC-62 = tested on: UACC-62
OVCAR-8 = tested on: OVCAR-8
NCI-H23 = tested on: NCI-H23
SNB-75 = tested on: SNB-75
SF-268 = tested on: SF-268
TK-10 = tested on: TK-10
IGROV-1 = tested on: IGROV-1
K562 = tested on: K562
LOX IMVI = tested on: LOX IMVI
HCC 2998 = tested on: HCC 2998
SNB-19 = tested on: SNB-19
U-251 = tested on: U-251
UO-31 = tested on: UO-31
A549 = tested on: A549
M19-MEL = tested on: M19-MEL
MDA-N = tested on: MDA-N

SMILES | GI50 (SF-539) | GI50 (M14) | GI50 (SR) | GI50 (OVCAR-3) | GI50 (UACC-62) | GI50 (OVCAR-8) | GI50 (NCI-H23) | GI50 (SNB-75) | GI50 (SF-268) | GI50 (TK-10) | GI50 (IGROV-1) | GI50 (K562) | GI50 (LOX IMVI) | GI50 (HCC 2998) | GI50 (SNB-19) | GI50 (U-251) | GI50 (UO-31) | GI50 (A549) | GI50 (M19-MEL) | GI50 (MDA-N)
NNC(=O)C(=O)NN=C(C(Cl)(Cl)CO)C(Cl)(Cl)CO | 25.2 µM (inactive) | 24.4 µM (inactive) | 18.6 µM (inactive) | 25.6 µM (inactive) | 65.5 µM (inactive) | 21.3 µM (inactive) | 30.5 µM (inactive) | 32.5 µM (inactive) | 36.4 µM (inactive) | 60.3 µM (inactive) | > 100 µM (inactive) | 36.7 µM (inactive) | 16.9 µM (inactive) | 31 µM (inactive) | 48.1 µM (inactive) | 19.5 µM (inactive) | 45.7 µM (inactive) | > 100 µM (inactive) | 20.1 µM (inactive) | –
CC(C)(Br)C(Br)CC/C(=C/CBr)CBr.CC(C)(Br)C(Br)CC/C(=C\CBr)CBr (stereo not drawn) | 4.66 µM (inactive) | 2.02 µM (inactive) | 0.783 µM (active) | – | 2.05 µM (inactive) | 2.54 µM (inactive) | 3.41 µM (inactive) | 3.98 µM (inactive) | 2.21 µM (inactive) | 8.77 µM (inactive) | 3.08 µM (inactive) | 2.24 µM (inactive) | 0.13 µM (active) | 13.5 µM (inactive) | 14.4 µM (inactive) | 3.05 µM (inactive) | 14.3 µM (inactive) | 13.9 µM (inactive) | 2 µM (inactive) | 2.16 µM (inactive)
COc1c(C)c(O)c2c(c1C)OC(c1ccccc1)CC2=O (stereo not drawn) | 84.5 µM (inactive) | 67.1 µM (inactive) | 23.5 µM (inactive) | > 100 µM (inactive) | 53 µM (inactive) | 62.4 µM (inactive) | 42.5 µM (inactive) | 65 µM (inactive) | 56.9 µM (inactive) | 42.9 µM (inactive) | 98.9 µM (inactive) | 35.1 µM (inactive) | 46.3 µM (inactive) | 56.1 µM (inactive) | – | 67.9 µM (inactive) | 61.7 µM (inactive) | 52.5 µM (inactive) | 38.1 µM (inactive) | –
COc1cc(/C=C/c2ccc(Br)cc2)cc(OC)c1OC | 11.4 µM (inactive) | 14.4 µM (inactive) | 16.1 µM (inactive) | 7.8 µM (inactive) | 8.02 µM (inactive) | 28.3 µM (inactive) | 16.3 µM (inactive) | 8.38 µM (inactive) | 9.12 µM (inactive) | 21.6 µM (inactive) | 23.6 µM (inactive) | 3.71 µM (inactive) | 14.1 µM (inactive) | 7.6 µM (inactive) | 21.1 µM (inactive) | 10.1 µM (inactive) | 9.77 µM (inactive) | 11.7 µM (inactive) | 13.9 µM (inactive) | –
Cc1nsc2cc(Cl)n(C)c(=O)c12 | > 100 µM (inactive) | > 100 µM (inactive) | > 100 µM (inactive) | > 100 µM (inactive) | – | > 100 µM (inactive) | > 100 µM (inactive) | 66.4 µM (inactive) | > 100 µM (inactive) | > 100 µM (inactive) | > 100 µM (inactive) | > 100 µM (inactive) | > 100 µM (inactive) | 0.991 µM (active) | > 100 µM (inactive) | > 100 µM (inactive) | > 100 µM (inactive) | > 100 µM (inactive) | > 100 µM (inactive) | –
CC(=O)NC1=C(NCCO)C(=O)c2ccccc2C1=O | > 50 µM (inactive) | > 50 µM (inactive) | > 50 µM (inactive) | 18.9 µM (inactive) | > 50 µM (inactive) | > 50 µM (inactive) | > 50 µM (inactive) | > 50 µM (inactive) | > 50 µM (inactive) | > 50 µM (inactive) | > 50 µM (inactive) | > 50 µM (inactive) | > 50 µM (inactive) | > 50 µM (inactive) | > 50 µM (inactive) | > 50 µM (inactive) | > 50 µM (inactive) | > 50 µM (inactive) | 9.79 µM (inactive) | –
COc1cccc(/C(Cl)=C(\C=O)c2cccc(OC)c2)c1 | 17.4 µM (inactive) | 13.1 µM (inactive) | 5.35 µM (inactive) | 15.4 µM (inactive) | 4.43 µM (inactive) | 10.7 µM (inactive) | 5.77 µM (inactive) | 8.24 µM (inactive) | 3.88 µM (inactive) | 20.4 µM (inactive) | 21 µM (inactive) | 4.06 µM (inactive) | 6.71 µM (inactive) | 13.2 µM (inactive) | 11.3 µM (inactive) | 10.1 µM (inactive) | 13 µM (inactive) | 12.1 µM (inactive) | 12.7 µM (inactive) | –
COc1c(O)c2ccccc2c2cc(O)ccc12 | 3.69 µM (inactive) | 3.64 µM (inactive) | 12.4 µM (inactive) | 8.81 µM (inactive) | 2.67 µM (inactive) | 3.88 µM (inactive) | 2.86 µM (inactive) | 8.17 µM (inactive) | 10.8 µM (inactive) | 25.4 µM (inactive) | 9.57 µM (inactive) | 2.72 µM (inactive) | 2 µM (inactive) | 17.3 µM (inactive) | 13.6 µM (inactive) | 5.22 µM (inactive) | 4.04 µM (inactive) | 8.65 µM (inactive) | 2.01 µM (inactive) | 1.08 µM (active)
N=C1c2ccccc2C(=O)c2c(NCCNCCO)ccc(O)c21 | 4.73 µM (inactive) | 10.3 µM (inactive) | 0.579 µM (active) | 12.9 µM (inactive) | 6.4 µM (inactive) | 4.72 µM (inactive) | 9.16 µM (inactive) | 15.6 µM (inactive) | 3.3 µM (inactive) | 11.9 µM (inactive) | 5.38 µM (inactive) | 3.64 µM (inactive) | 4.15 µM (inactive) | 9.42 µM (inactive) | 8.24 µM (inactive) | 4.46 µM (inactive) | 7.83 µM (inactive) | 6.3 µM (inactive) | 5.55 µM (inactive) | –
O=c1/c(=C/c2ccccc2[N+](=O)[O-])sc2nnc(-c3ccco3)n12 | 18.7 µM (inactive) | 18 µM (inactive) | 32.3 µM (inactive) | 17.7 µM (inactive) | 25.8 µM (inactive) | 17 µM (inactive) | 22.2 µM (inactive) | 25.8 µM (inactive) | 20.1 µM (inactive) | > 100 µM (inactive) | 25.1 µM (inactive) | 50.9 µM (inactive) | 16.9 µM (inactive) | 22.4 µM (inactive) | 22.4 µM (inactive) | 21.2 µM (inactive) | 30.5 µM (inactive) | 19.8 µM (inactive) | 19.5 µM (inactive) | –
CC(C)(C)c1cc2c3c(c1)c(=O)c1cccc4c(O)c5cccc(c2=O)c5c-3c41 | 10 µM (inactive) | 40.7 µM (inactive) | 15.3 µM (inactive) | 40.4 µM (inactive) | > 100 µM (inactive) | > 100 µM (inactive) | 68.4 µM (inactive) | > 100 µM (inactive) | > 100 µM (inactive) | > 100 µM (inactive) | > 100 µM (inactive) | 38.5 µM (inactive) | 41.2 µM (inactive) | 0.0105 µM (active) | > 100 µM (inactive) | 57.7 µM (inactive) | > 100 µM (inactive) | > 100 µM (inactive) | > 100 µM (inactive) | –
